Where two headings read alike, the source gives them in different places.
Key:
Tomato thrips = experiment: In vitro bio-efficacy, Tomato thrips (Ex. 57)
[1] = system: Cotton Bacterial Leaf Blight (Xanthomonas citri pv. Malvacearum); experiment: Field trial, cotton bacterial leaf blight (Ex. 96); settings: dose 500 PPM
[2] = system: Rice Bacterial Blight (BLB) (Xanthomonas oryzae pv. Oryzae); type: in vivo; settings: dose 500 PPM
[3] = system: Potato Bacterial Blight (BLB) (Ralstonia solanacearum); type: in vivo; settings: dose 500 PPM
Spodoptera litura [4] = experiment: Controlled conditions, Spodoptera litura on cabbage plants (Ex. 26); settings: in vivo
Aphid [5] = system: Aphid
Mite [6] = settings: mite on okra plants, green house; dose 1 ml/gm/lit. spray; 48 hrs after application
Spodoptera litura [7] = experiment: whole plant or invertebrate; settings: 72 h
Thrips [8] = experiment: whole plant or invertebrate; settings: in Gossypium hirsutum, 48 h
tomato seedlings = experiment: Response of tomato plants, greenhouse growth (Ex. 30); type: in vivo
Mite [9] = settings: Dose 1 ml/gm/lit.; 48 hrs
Spodoptera litura [10] = settings: Spodoptera litura 3rd instar on cabbage plants; dose 1 ml/gm/lit. spray; 72 hrs after application
Helicoverpa armigera [11] = settings: Helicoverpa armigera 3rd instar on chickpea plants, dose 1 ml/gm/lit. spray
Aphid [12] = experiment: whole plant or invertebrate; settings: 48 h
Spodoptera litura [13] = settings: 72 h, 1 mL or g/L
Alternaria alternata = experiment: In vitro poisoned food technique against fungus (Ex. 20); type: cell-based; settings: […]
Mealy Bug [14] = experiment: In vitro bio-efficacy against mealy bug (Ex. 16); settings: in vivo
Aphid [15] = settings: 48 h, 1 mL or g/L
[16] = cited from earlier work
Thrips [17] = settings: 48 h, 1 mL or g/L
Mite [18] = experiment: Green house effect on mite, okra plants (Ex. 23); settings: in vivo
chili seedlings = experiment: Response of chili plants, greenhouse growth (Ex. 31); type: in vivo
Thrips [19] = settings: 48 h
Thrips [20] = experiment: Greenhouse effect on thrips, cotton plants (Ex. 27); settings: in vivo
Helicoverpa armigera [21] = settings: Helicoverpa armigera on okra fruits, dose 1 ml/gm/lit., 72 Hrs.
Mealy Bug [22] = experiment: Green house effect on mealy bugs, cotton plants (Ex. 24); settings: in vivo
[23] = read-out: % Corrected Mortality at 48 Hrs.
[24] = read-out: % Mortality at 48 Hrs.
[25] = tomato seedlings, 10th day, dose 1 ml/gm/lit
[26] = Table 13, descriptive, no test described
[27] = chili seedlings, dose 1 ml/gm/lit, 10th day

CN(C(=O)c1ccccc1)c1cccc(C(=O)Nc2c(Br)cc(C(F)(C(F)(F)F)C(F)(F)F)cc2C(F)(F)F)c1F [Brofranilide]
% Corrected Mortality at 72 hrs. (Tomato thrips; Dose 0.17 ml/lit): 47.37% | % Mortality at 72 hrs. (Tomato thrips; Dose 0.17 ml/lit): 50.0% | Total no of dead insects at 72 hrs. (Tomato thrips; Dose 0.17 ml/lit): 20.0

O=[N+]([O-])C(Br)(CO)CO [Bromopol]
% Increase in yield over control ([1]; cotton): 7.93% | Yield ([1]; cotton): 24.96 qtl/ha | % Disease Infection after 1st spray [1]: 30.65% | % Disease Infection after 2nd spray [1]: 12.86% | % Disease Reduction Over Control after 1st spray [1]: 47.43% | % Disease Reduction Over Control after 2nd spray [1]: 81.68% | % Disease Infection after 1st spray [2]: 22.18% | % Disease Infection after 2nd spray [2]: 19.63% | % Disease Reduction Over Control after 1st spray [2]: 61.71% | % Disease Reduction Over Control after 2nd spray [2]: 74.02% | % Increase in yield over control ([2]; rice): 8.31% | Yield ([2]; rice): 4.09 t/ha | % Disease Infection after 1st spray [3]: 24.49% | % Disease Infection after 2nd spray [3]: 21.79% | % Disease Reduction Over Control after 1st spray [3]: 53.59% | % Disease Reduction Over Control after 2nd spray [3]: 71.13% | % Increase in yield over control ([3]; potato): 7.64% | Yield ([3]; potato): 22.24 t/ha

C=C(C)[C@H]1CC=C(C)CC1 [D-limonene]
% Corrected Mortality at 72 Hrs. (Spodoptera litura [4]): 23.68% | Total No. of dead insect at 48 Hrs. (Aphid [5]; 48 h): 6.25 | % Corrected Mortality at 48 Hrs. (Aphid [5]; Dose 1 ml/gm/lit., 48 hrs): 57.14% | % Mortality at 48 Hrs. (Mite [6]): 52.50% | mortality at 1 mL or g/L (Spodoptera litura [7]; read-out: % Corrected Mortality at 72 Hrs.): 21.1% | mortality at 1 mL or g/L (Spodoptera litura [7]; read-out: % Mortality at 72 Hrs.): 25% | mortality at 1 mL or g/L (Thrips [8]; [23]): 28.6% | mortality at 1 mL or g/L (Thrips [8]; [24]): 37.5% | CCI Pre (tomato seedlings): 11.59 | Plant Height Pre (tomato seedlings): 5.52 cm | Stem Girth Pre (tomato seedlings): 1.30 mm | CCI 5th Day (tomato seedlings; 120 h): 13.66 | Plant Height 5th Day (tomato seedlings; 120 h): 6.44 cm | Stem Girth 5th Day (tomato seedlings; 120 h): 1.98 mm | CCI 10th Day (tomato seedlings; 240 h): 15.54 | Plant Height 10th Day (tomato seedlings; 240 h): 7.56 cm | Root Length % Increase over control (tomato seedlings; 240 h): 25.57% | Stem Girth 10th Day (tomato seedlings; 240 h): 2.21 mm | Plant Height % Increase over pre on 10th Day (tomato seedlings; [25]): 36.96% | Stem Girth % Increase over pre on 10th Day (tomato seedlings; [25]): 69.48% | CCI % Increase over pre on 10th Day (tomato seedlings; tomato seedlings, dose 1 ml/gm/lit, 10th day): 34.08% | % Corrected Mortality at 48 Hrs. (Mite [9]): 45.95% | % Mortality at 48 Hrs. (Mite [9]): 50.00% | % Mortality at 72 Hrs. (Spodoptera litura [10]): 27.50% | % Mortality at 72 Hrs. (Helicoverpa armigera [11]; 72 hrs after application): 32.50% | % Corrected Mortality at 72 Hrs. (Helicoverpa armigera [11]; 72 hrs, corrected for water control): 32.50% | mortality at 1 mL or g/L (Aphid [12]; [23]): 55.9% | mortality at 1 mL or g/L (Aphid [12]; [24]): 62.5% | Total No. of dead insect at 72 Hrs. (Spodoptera litura [13]): 2.50 | inhibition of growth at 1 mL or g/L (Alternaria alternata): 46.6% | % Corrected Mortality at 48 Hrs. (Mealy Bug [14]): 39.47% | % Mortality at 48 Hrs. (Mealy Bug [14]): 42.50% | Total No. of dead insect at 48 Hrs. (Aphid [15]): 62.50 | Acaricidal Activity - Mode of action [16, 26]: Ovicidal, repellent activity | Antioxidant Activity - Mode of action [16, 26]: Possesses antioxidant | Virucidal Activity - Mode of action [16, 26]: Exhibits viricidal activities | Phytotonic Effect ([16]; Table 13, effect on plants, descriptive): Exhibits plant | Total No. of dead insect at 48 Hrs. (Thrips [17]): 3.75 | % Corrected Mortality at 48 Hrs. (Mite [18]): 50.00% | CCI Pre (chili seedlings): 10.30 | Plant Height (cm) Pre (chili seedlings): 4.90 cm | CCI 5th Day (chili seedlings; 120 h): 13.60 | Plant Height (cm) 5th Day (chili seedlings; 120 h): 6.97 cm | CCI 10th Day (chili seedlings; 240 h): 17.4 | Plant Height (cm) 10th Day (chili seedlings; 240 h): 8.24 cm | Root Lenght % Increase over control (chili seedlings; 240 h): 61.51% | CCI % Increase over pre on 10th Day (chili seedlings; [27]): 68.93% | Plant Height % Increase over pre on 10th Day (chili seedlings; [27]): 68.16% | Root Lenght (cm) 10th Day (chili seedlings; [27]): 4.42 cm | Stem Girth % Increase over pre on 10th Day (chili seedlings; [27]): 60.00% | Total No. of dead insect at 48 Hrs. (Thrips [19]): 37.50 | % Corrected Mortality at 48 Hrs. (Thrips [20]): 30.56% | % Mortality at 72 Hrs. (Helicoverpa armigera [21]): 32.50% | % Corrected Mortality at 72 Hrs. (Helicoverpa armigera [21]; corrected for water control): 32.50% | % Corrected Mortality at 48 Hrs. (Mealy Bug [22]): 38.89% | % Mortality at 48 Hrs. (Mealy Bug [22]): 45.00%

CON=CNC(=O)c1ccc(C2=NOC(c3cc(Cl)cc(Cl)c3)(C(F)(F)F)C2)cc1C (centres unmarked) [Fluxametamide]
% Corrected Mortality at 72 hrs. (Tomato thrips; Dose 0.8 ml/lit): 57.89% | % Mortality at 72 hrs. (Tomato thrips; Dose 0.8 ml/lit): 60.0% | Total no of dead insects at 72 hrs. (Tomato thrips; Dose 0.8 ml/lit): 24.0

From US20250351832A1, “PHYTOCHEMICALS AS BIOPESTICIDES AND BIOSTIMULANTS” (KAY BEE BIO ORGANICS PVT. LTD., priority 2024, published 2025)
